From ChEMBL document CHEMBL5532637, “Antimicrobial activity of natural and semi-synthetic carbazole alkaloids” (Eur J Med Chem, 2023)
Converted amounts (≈) assume the structure as drawn.

Assays:
Staphylococcus aureus [1] = assay: Antibacterial activity against Staphylococcus aureus assessed as inhibition of bacterial growth by broth dilution method; type: functional
Staphylococcus aureus [2] = assay: Antibacterial activity against Staphylococcus aureus TISTR 1466 assessed as inhibition of bacterial growth by two-fold serial dilution method; type: functional
Staphylococcus aureus [3] = assay: Antibacterial activity against methicillin-resistant Staphylococcus aureus SK1 assessed as inhibition of bacterial growth by two-fold serial dilution method; type: functional
Escherichia coli [4] = assay: Antibacterial activity against Escherichia coli TISTR 780 assessed as inhibition of bacterial growth by two-fold serial dilution method; type: functional
Salmonella typhimurium = assay: Antibacterial activity against Salmonella typhimurium TISTR 292 assessed as inhibition of bacterial growth by two-fold serial dilution method; type: functional, Salmonella enterica subsp. enterica serovar Typhimurium; conditions: Salmonella enterica
[5] = tested on: Staphylococcus epidermidis; assay: Antibacterial activity against Staphylococcus epidermidis assessed as zone of inhibition at 25 ug/ml; type: functional; conditions: read-out: IZ
Proteus vulgaris = assay: Antibacterial activity against Proteus vulgaris assessed as zone of inhibition at 25 ug/ml; type: functional; conditions: read-out: IZ
Escherichia coli [6] = assay: Antibacterial activity against Escherichia coli assessed as zone of inhibition at 25 ug/ml; type: functional; conditions: read-out: IZ
Escherichia coli [7] = assay: Antibacterial activity against Escherichia coli assessed as inhibition of bacterial growth by agar well dilution assay; type: functional
Staphylococcus aureus [8] = assay: Antibacterial activity against Staphylococcus aureus assessed as inhibition of bacterial growth by agar well dilution assay; type: functional
Pasteurella multocida = assay: Antibacterial activity against Pasteurella multocida assessed as inhibition of bacterial growth by agar well dilution assay; type: functional
Bacillus subtilis [9] = assay: Antibacterial activity against Bacillus subtilis assessed as inhibition of bacterial growth by agar well dilution assay; type: functional
Pseudomonas aeruginosa [10] = assay: Antibacterial activity against Pseudomonas aeruginosa assessed as zone of inhibition incubated for 24 hrs by disk diffusion method; type: functional
Staphylococcus aureus [11] = assay: Antibacterial activity against Staphylococcus aureus assessed as inhibition of bacterial growth by broth microdilution method; type: functional
Klebsiella pneumoniae [12] = assay: Antibacterial activity against Klebsiella pneumoniae assessed as inhibition of bacterial growth by broth microdilution method; type: functional
Escherichia coli [13] = assay: Antibacterial activity against Escherichia coli assessed as inhibition of bacterial growth by broth microdilution method; type: functional
Pseudomonas aeruginosa [14] = assay: Antibacterial activity against Pseudomonas aeruginosa assessed as inhibition of bacterial growth by broth microdilution method; type: functional
Staphylococcus aureus [15] = assay: Antimicrobial activity against Staphylococcus aureus ATCC 29213 assessed as inhibition of microbial growth incubated for 24 hrs by two-fold serial dilution assay; type: functional
Bacillus subtilis [16] = assay: Antimicrobial activity against Bacillus subtilis ATCC 6633 assessed as inhibition of microbial growth incubated for 24 hrs by two-fold serial dilution assay; type: functional
Priestia megaterium = assay: Antimicrobial activity against Bacillus megaterium ATCC 9885 assessed as inhibition of microbial growth incubated for 24 hrs by two-fold serial dilution assay; type: functional
Micrococcus luteus = assay: Antimicrobial activity against Sarcina lutea assessed as inhibition of microbial growth incubated for 24 hrs by two-fold serial dilution assay; type: functional
Klebsiella pneumoniae [17] = assay: Antimicrobial activity against Klebsiella pneumoniae ATCC 13883 assessed as inhibition of microbial growth incubated for 24 hrs by two-fold serial dilution assay; type: functional
Pseudomonas aeruginosa [18] = assay: Antimicrobial activity against Pseudomonas aeruginosa ATCC 27953 assessed as inhibition of microbial growth incubated for 24 hrs by two-fold serial dilution assay; type: functional
Escherichia coli [19] = assay: Antimicrobial activity against Escherichia coli ATCC 25922 assessed as inhibition of microbial growth incubated for 24 hrs by two-fold serial dilution assay; type: functional
Candida albicans = assay: Antimicrobial activity against Candida albicans NRRL Y-477 assessed as inhibition of microbial growth incubated for 48 hrs by two-fold serial dilution assay; type: functional
[20] = tested on: Cryptococcus deuterogattii; assay: Antifungal activity against Cryptococcus gattii VGII WM178/08 assessed as inhibition of fungal growth incubated for 24 to 48 hrs by CLSI protocol based broth microdilution method; type: functional, Cryptococcus bacillisporus; conditions: time 24-48 hrs
Cryptococcus neoformans = assay: Antifungal activity against Cryptococcus neoformans […] assessed as inhibition of fungal growth incubated for 24 to 48 hrs by CLSI protocol based broth microdilution method; type: functional; conditions: time 24-48 hrs
Staphylococcus aureus [21] = assay: Antibacterial activity against Staphylococcus aureus assessed as zone of inhibition by agar-disc diffusion method; type: functional
Bacillus subtilis [22] = assay: Antibacterial activity against Bacillus subtilis assessed as zone of inhibition by agar-disc diffusion method; type: functional
Staphylococcus aureus [23] = assay: Antimicrobial activity against methicillin-resistant Staphylococcus aureus assessed as inhibition of microbial growth incubated for 18 hrs by agar diffusion method; type: functional
Pythium = assay: Antifungal activity against Pythium assessed as zone of inhibition incubated upto 9 days by disc diffusion assay; type: functional; conditions: time <= 9 day
Vibrio cholerae = assay: Antibacterial activity against Vibrio cholerae assessed as inhibition of bacterial growth incubated for 24 hrs by broth microdilution method; type: functional
Shigella flexneri = assay: Antibacterial activity against Shigella flexneri assessed as inhibition of bacterial growth incubated for 24 hrs by broth microdilution method; type: functional
Staphylococcus aureus [24] = assay: Antibacterial activity against Staphylococcus aureus assessed as inhibition of bacterial growth incubated for 24 hrs by broth microdilution method; type: functional
Staphylococcus aureus [25] = assay: Antibacterial activity against Staphylococcus aureus assessed as inhibition of bacterial growth; type: functional, organism-based

COc1cc2c3c([nH]c2cc1C)C(=O)C=C(C)C3=O
MIC (Staphylococcus aureus [1]): 50 µg/mL (≈ 196 µM)

COC(=O)c1cc(O)c2[nH]c3ccc(O)c(CC=C(C)C)c3c2c1
MIC (Staphylococcus aureus [2]): 64 µg/mL (≈ 197 µM)
MIC (Staphylococcus aureus [3]): 64 µg/mL (≈ 197 µM)
MIC (Escherichia coli [4]): 64 µg/mL (≈ 197 µM)
MIC (Salmonella typhimurium): 64 µg/mL (≈ 197 µM)

CC1(C)C=Cc2c(ccc3[nH]c4ccc(C=O)cc4c23)O1
MIC (Staphylococcus aureus [2]): 64 µg/mL (≈ 231 µM)
MIC (Staphylococcus aureus [3]): 64 µg/mL (≈ 231 µM)
MIC (Escherichia coli [4]): 64 µg/mL (≈ 231 µM)
MIC (Salmonella typhimurium): 64 µg/mL (≈ 231 µM)

Cc1cccc2c3c([nH]c12)C(=O)/C(=C/c1ccc(Br)cc1)CC3
zone of inhibition at 25 µg/mL [5]: 15 mm
zone of inhibition at 25 µg/mL (Proteus vulgaris): 15 mm
zone of inhibition at 25 µg/mL (Escherichia coli [6]): 15 mm

C/C(=N/C(=S)C(=S)n1cc(CC(=O)O)c2ccccc21)C1CCCc2c1[nH]c1c([N+](=O)[O-])cc([N+](=O)[O-])cc21 (stereo not drawn)
MIC (Escherichia coli [7]): 0.056 µg/mL (≈ 0.0994 µM)
MIC (Staphylococcus aureus [8]): 0.056 µg/mL (≈ 0.0994 µM)
MIC (Pasteurella multocida): 0.056 µg/mL (≈ 0.0994 µM)
MIC (Bacillus subtilis [9]): 0.056 µg/mL (≈ 0.0994 µM)

C=CC(=C)c1c(C(=O)OC)cc(O)c2[nH]c3ccccc3c12
MIC (Staphylococcus aureus [2]): 4 µg/mL (≈ 13.6 µM)
MIC (Staphylococcus aureus [3]): 4 µg/mL (≈ 13.6 µM)

CCOc1nc2c(c(-c3ccc(F)cc3)c1C(N)=O)CCc1c-2[nH]c2ccccc12
inhibition zone (IZ) (Pseudomonas aeruginosa [10]): 2.1 cm

Cc1cc2c([nH]c3ccc(O)cc32)c2c1OC(C)(C)C=C2
MIC90 (Staphylococcus aureus [11]): 3.12 µg/mL (≈ 11.2 µM)
MIC90 (Klebsiella pneumoniae [12]): 3.12 µg/mL (≈ 11.2 µM)
MIC90 (Escherichia coli [13]): > 100 µg/mL
MIC90 (Pseudomonas aeruginosa [14]): > 100 µg/mL

C/C(=N\C(Cc1c[nH]cn1)C(=O)Oc1cc(C(=O)O)cc(O)c1O)C1CCCc2c1[nH]c1c([N+](=O)[O-])cc([N+](=O)[O-])cc21 (stereo not drawn)
MIC (Escherichia coli [7]): 0.056 µg/mL (≈ 0.0945 µM)
MIC (Staphylococcus aureus [8]): 0.056 µg/mL (≈ 0.0945 µM)
MIC (Pasteurella multocida): 0.056 µg/mL (≈ 0.0945 µM)
MIC (Bacillus subtilis [9]): 0.056 µg/mL (≈ 0.0945 µM)

CSC(=S)NNC(=O)c1ccc(-n2c3c(c4ccccc42)CCCC3)cc1
MIC (Staphylococcus aureus [15]): 25 µg/mL
MIC (Bacillus subtilis [16]): 25 µg/mL
MIC (Priestia megaterium): 25 µg/mL
MIC (Micrococcus luteus): 25 µg/mL
MIC (Klebsiella pneumoniae [17]): 25 µg/mL
MIC (Pseudomonas aeruginosa [18]): 25 µg/mL
MIC (Escherichia coli [19]): 25 µg/mL
MIC (Candida albicans): 25 µg/mL

c1ccc2c(c1)[nH]c1ccccc12 [CARBAZOLE]
MIC [20]: 160 µg/mL (≈ 957 µM)
MIC (Cryptococcus neoformans): 160 µg/mL (≈ 957 µM)

O=C(O)c1cn(C2CC2)c2cc(N3CCNCC3)c(F)cc2c1=O [CIPROFLOXACIN]
inhibition zone (IZ) (Staphylococcus aureus [21]): 15 mm
inhibition zone (IZ) (Bacillus subtilis [22]): 15 mm

C=C(C)C1Cc2c(cc(O)c3[nH]c4ccccc4c23)C(=O)O1 (stereo not drawn) [CLAUSAMINE A]
MIC (Staphylococcus aureus [3]): 8 µg/mL (≈ 27.3 µM)
MIC (Staphylococcus aureus [23]): 64 µg/mL

C=C(C)C1Cc2c(cc(OC)c3[nH]c4ccccc4c23)C(=O)O1 (stereo not drawn) [CLAUSAMINE B]
MIC (Staphylococcus aureus [3]): 0.25 µg/mL (≈ 0.813 µM)

COc1ccc2c(c1)[nH]c1cc(OC)c(C(=O)O)cc12 [CLAUSINE K]
inhibition zone (IZ) (Pythium): 16.2 mm

COC(=O)c1cc2c(cc1OC)[nH]c1ccccc12 [CLAUSINE L]
inhibition zone (IZ) (Pythium): 10.2 mm

COc1cc(C=O)c(CC=C(C)C)c2c1[nH]c1ccccc12 [EKEBERGININE]
MIC (Vibrio cholerae): 32 µg/mL (≈ 109 µM)
MIC (Shigella flexneri): 32 µg/mL (≈ 109 µM)
MIC (Staphylococcus aureus [24]): 32 µg/mL (≈ 109 µM)

CC(C)=CCc1c(O)c(C=O)cc2c1[nH]c1ccccc12 [HEPTAPHYLLINE]
inhibition zone (IZ) (Staphylococcus aureus [21]): 14 mm
inhibition zone (IZ) (Bacillus subtilis [22]): 12 mm

NC[C@H]1O[C@H](O[C@H]2[C@H](O)[C@@H](O[C@H]3O[C@H](CO)[C@@H](O)[C@H](N)[C@H]3O)[C@H](N)C[C@@H]2N)[C@H](O)[C@@H](O)[C@@H]1O [KANAMYCIN]
MIC90 (Staphylococcus aureus [11]): 12.5 µg/mL (≈ 25.8 µM)
MIC90 (Klebsiella pneumoniae [12]): 12.5 µg/mL (≈ 25.8 µM)

COc1ccc2[nH]c3c4c(c(C)cc3c2c1)OC(C)(C)C=C4 [KOENIMBINE]
IC50 (Staphylococcus aureus [25]): 17 µM

CC1=CC(=O)c2[nH]c3ccccc3c2C1=O [MURRAYAQUINONE A]
MIC (Staphylococcus aureus [1]): 50 µg/mL (≈ 237 µM)
